This note sets out measurements from patent US8951972B2, “FGFR1 extracellular domain combination therapies for lung cancer” (Five Prime Therapeutics, Inc., priority 2010, dated 2015).

Experiment [1] concerns A549 Non-Small Cell Lung Cancer (NSCLC) Xenograft. In words: A549 non-small cell lung cancer (NSCLC) xenograft model, tumor volume. The format is in vivo, SCID mice. To be noted: day 28; FGFR1-ECD.339-Fc 15 mg/kg and carboplatin 25 mg/kg i.p. 2x/wk from day 7 x 3 wks; paclitaxel 30 mg/kg i.p. 2x/wk from day 8 x 3 wks.
Experiment [2] shares this test system. The experiment is described as above. The format is in vivo, SCID mice. The procedure:
Six weeks old female SCID mice were purchased from Charles River Laboratories (Wilmington, Mass.) and were acclimated for 1 week before the start of the study. […] The cells were implanted subcutaneously over the right flank of the mice at 5×10^6 cells/100 μl/mouse. One day after tumor implantation, mice were randomized according to body weight at 10 mice per group.
The tumor volume and body weight of the mice were monitored twice a week throughout each study.
The tumor volume of each group of mice at the end of each study was analyzed by one-way ANOVA followed by Tukey's test.
Cisplatin was purchased from Sigma-Aldrich (St. Louis, Mo.; Cat. No. P4394), formulated in 0.9% saline, and administered i.p. at 3.5 mg/kg ([…]) once per week for six weeks. Saline was used as negative control and was administered i.p. at 100 μl per mouse twice a week for six weeks.
On day 42, when the average tumor volume in the vehicle group reached 1300 mm^3, the mice were euthanized by isoflurane inhalation and cervical dislocation.
FGFR1-ECD.339-Fc was formulated in 0.9% Saline for Injection USP at 3 mg/ml. […] FGFR1-ECD.339-Fc was administered intraperitoneally (i.p.) at 15 mg/kg twice per week for 5 weeks. Paclitaxel was administered i.p. at 18 mg/kg on days 8, 12, and 15.
When the average tumor volume in vehicle control group reached ˜500 mm^3, the mice were euthanized by isoflurane inhalation and cervical dislocation.
FGFR1-ECD.339-Fc was formulated in 0.9% Saline for Injection USP at 3 mg/ml. 5-FU was purchased from Sigma-Aldrich (St. Louis, Mo.; Cat. No. F6627) and was initially dissolved in dimethyl sulfoxide (DMSO, Sigma-Aldrich, St. Louis, Mo.; Cat. No. D8418-50) at the concentration of 50 mg/ml as a stock solution. The stock solution was further diluted in 0.9% Sodium Chloride Injection USP to 6.6 mg/ml (for 33 mg/kg dosing). FGFR1-ECD.339-Fc was administered intraperitoneally (i.p.) at 15 mg/kg twice per week for four weeks. 5-FU was administered i.p. at 33 mg/kg twice a week for three weeks.
Mice were euthanized on day 31 by isoflurane inhalation and cervical dislocation.
FGFR1-ECD.339-Fc was formulated in PBS at 3 mg/ml and administered intraperitoneally (i.p.) at 15 mg/kg (300 μg/100 μl/mouse) twice a week for four weeks. Docetaxel was administered i.p. at 3 mg/kg or 10 mg/kg twice per week for four weeks.
Mice in the albumin control group were euthanized on day 32 by isoflurane inhalation and cervical dislocation when the average tumor volume in the group reached 1000 mm^3.

Experiment [3] relates to H1703 Non-Small Cell Lung Cancer (NSCLC) Xenograft. The experiment in a line: H1703 non-small cell lung cancer (NSCLC) xenograft model, tumor volume. The experiment is classed as in vivo, SCID mice. To be noted: day 38; FGFR1-ECD.339-Fc 15 mg/kg i.p. 2x/wk; docetaxel 25 mg/kg i.p. 1x/3 wk x 2 doses. As for the experimental part:
Human non-small cell lung cancer (NSCLC) cell line H1703 was used as the tumor model and was purchased from ATCC (Manassas, Va.; Cat. No. CRL-5889).
Docetaxel was purchased from Toronto Research Chemicals (North York, Ontario, Canada; cat. No. D494420) and formulated in H2O containing 5% Tween 80 and 5% glucose. Docetaxel was administered i.p. at 25 mg/kg (equivalent to about 75 mg/m^2 in a human) once every three weeks for two doses. In combination groups, FGFR1-ECD.339-Fc and docetaxel were either given concurrently or sequentially with FGFR1-ECD.339-Fc given one day before docetaxel or vice versa. Human albumin was purchased from Grifols USA (Los Angeles, Calif.; Cat. No. NDC 61953-0002-1), formulated in PBS at 3 mg/mL and was used as negative control at 300 μg/100 μL/mouse (15 mg/kg).
The tumor volume was measured by external caliper to determine the greatest longitudinal diameter (length) and the greatest transverse diameter (width). The tumor volume was then calculated using the following formula: Tumor volume (mm^3)=(length×width^2)/2

For experiment [4], the system named is Colo205 Colon Cancer Xenograft. In words: Colo205 colon cancer xenograft model, tumor volume. The conditions noted are these: day 17; FGFR1-ECD.339-Fc 15 mg/kg i.p. 2x/wk x 4 wks; 5-FU and leucovorin 10 mg/kg each i.p. daily x 5 days; oxaliplatin 15 mg/kg twice per week. The experiment is classed as in vivo, SCID mice.
The subject of experiment [5] is H520 Non-Small Cell Lung Cancer (NSCLC) Xenograft. The experiment in a line: H520 non-small cell lung cancer (NSCLC) xenograft model, tumor volume. The format is in vivo, SCID mice. As for the experimental part: Dosing for all groups began one day post tumor implantation.
In combination groups, FGFR1-ECD.339-Fc and pemetrexed were administered on the same schedule as when given as single agents, and were administered concurrently on days 1, 4, 8, and 11.

The test system of experiment [6] is JIMT-1 Breast Cancer Xenograft. In words: JIMT-1 breast cancer xenograft model, tumor volume. To be noted: Day 21; FGFR1-ECD.339-Fc 15 mg/kg i.p. 2x/wk; doxorubicin 0.5 mg/kg 1x/wk; paclitaxel 30 mg/kg 2x/wk; each x 5 wks from day 7.
Procedure: Six week old female SCID mice were purchased from Charles River Laboratories (Wilmington, Mass.) and were acclimated for 1 week before the start of the study. […] The cells were cultured for ten passages in DMEM+10% FBS, 1% L-glutamine, and 1% penicillin/streptomycin at 37° C. in a humidified atmosphere with 5% CO2. When the cultured cells reached 85-90% confluence, cells were harvested and resuspended in cold Ca^2+ and Mg^2+ free phosphate buffered saline (PBS) containing 50% Matrigel at 5×10^7 cells per milliliter. The cells were implanted subcutaneously over the right flank of the mice at 5×10^6 cells/100 μl/mouse. One day after tumor implantation, mice were randomized according to body weight at 10 mice per group.
FGFR1-ECD.339-Fc was formulated in 0.9% Saline for Injection USP at 3 mg/ml and administered intraperitoneally (i.p.) at 15 mg/kg (300 μg/100 μl/mouse) twice per week for five weeks beginning on day 7. […] Paclitaxel was administered at 30 mg/kg (60 μg/200 μL per mouse) twice per week for five weeks beginning on day 7.
The tumor volume and body weight of the mice were monitored twice a week throughout the study.
Mice were euthanized on day 42 by isoflurane inhalation and cervical dislocation.
Where [7] appears, read: day 42, FGFR1-ECD.339-Fc 20 mg/kg i.p. 2x/wk x 6 wks, cisplatin 3.5 mg/kg i.p. 1x/wk x 6 wks.
The mark [8] stands for this setting: day 49, FGFR1-ECD.339-Fc alone 15 mg/kg i.p. 2x/wk x 6 wks.

For “FGFR1-ECD.339-Fc: human FGFR1 extracellular domain ending at amino acid 339 fused to an Fc; SEQ ID NO: 6 (mature form)”, the “Fractional tumor volume (FTV), each treatment alone” value in experiment [1] was 0.58; in experiment [2] (day 31, FGFR1-ECD.339-Fc 15 mg/kg i.p. 2x/wk x 4 wks, 5-FU 33 mg/kg i.p. 2x/wk x 3 wks), 0.84; in experiment [2] (day 31, FGFR1-ECD.339-Fc 15 mg/kg i.p. 2x/wk x 5 wks, paclitaxel 18 mg/kg i.p. days 8, 12, 15), 0.84; in experiment [2] (day 32, FGFR1-ECD.339-Fc 15 mg/kg i.p. 2x/wk x 4 wks, docetaxel 3 mg/kg i.p. 2x/wk x 4 wks), 0.54; in experiment [2] (day 32, FGFR1-ECD.339-Fc 15 mg/kg i.p. 2x/wk x 4 wks, docetaxel 10 mg/kg i.p. 2x/wk x 4 wks) it was 0.54; in experiment [2] (day 38, FGFR1-ECD.339-Fc 15 mg/kg i.p. 2x/wk x 5 wks, paclitaxel 18 mg/kg i.p. days 8, 12, 15), 0.89. Moreover, the “Fractional tumor volume (FTV), each treatment alone” value in experiment [2] (day 39, FGFR1-ECD.339-Fc 15 mg/kg i.p. 2x/wk (start day 1), vincristine 1 mg/kg i.p. days 8, 15, 22) came out at 0.50; in experiment [2] (day 46, FGFR1-ECD.339-Fc 15 mg/kg i.p. 2x/wk (start day 1), vincristine 1 mg/kg i.p. days 8, 15, 22), 0.40; in experiment [2] (day 70, FGFR1-ECD.339-Fc 20 mg/kg i.p. 2x/wk (start day 19), vincristine 1.5 mg/kg i.p. days 27, 34, 41), 0.71; in experiment [3], 0.68; in experiment [4], 0.77; in experiment [5] (day 49, FGFR1-ECD.339-Fc 15 mg/kg, pemetrexed 62.5 mg/kg) it was 0.68. Besides, the “Fractional tumor volume (FTV), each treatment alone” value in experiment [5] (day 49, FGFR1-ECD.339-Fc 15 mg/kg, pemetrexed 125 mg/kg) was 0.68; in experiment [5] (day 49, FGFR1-ECD.339-Fc 15 mg/kg, pemetrexed 250 mg/kg) it was 0.68; in experiment [6] it was 0.93. Besides, the entries for the “Mean Tumor volume mm^3(±SD)” value in experiment [2] (setting [7]), in experiment [3] and in experiment [5] (setting [8]) were 807 (±431) mm^3, 557 (±151) mm^3 and 630.4 (±461.5) mm^3, respectively. Besides, the “Tumor growth inhibition (%)” value in experiment [2] (setting [7]) is recorded as 39%; in experiment [3] it was 33%; in experiment [5] (setting [8]) it was 31%. Moreover, the “Fractional tumor volume (FTV) relative to control, each treatment alone” value in experiment [2] (day 42, FGFR1-ECD.339-Fc 20 mg/kg, cisplatin 3.5 mg/kg) is given as 0.60. The “Tumor inhibition over the course of the study (mean tumor volume)” value in experiment [5] (FIGS. 2A, 3A, 4A, FGFR1-ECD.339-Fc 15 mg/kg, pemetrexed alone at the low or medium dose (62.5 or 125 mg/kg), combination dosed concurrently) was “resulted in tumor inhibition”.
